Experimental data from PMC7066271 (Clinical and Experimental Nephrology, 2020).

Tests used:
[1] = Plasma pharmacokinetics of dotinurad, single 4 mg oral dose with and without oxaprozin, in healthy adult males; type: in vivo, human
Experimental: This was a single-center, open-label, two-period, sequential-group, add-on, drug-drug interaction study in healthy adult males conducted at a Japanese clinical pharmacology study center. Following a screening period ranging from 29 days before, to the day before the study drug administration (Day -1), eligible subjects were admitted to the study site on Day-1, received a single 4 mg oral dose of dotinurad in a fed state, and were discharged 48 h postdose. […] They underwent a follow-up examination between six and ten days after co-administration for safety evaluation. […] A blood sample was drawn, in the amount of 5 mL at each time point except for 10 mL at 4 h after drug administration, into a heparin-containing blood collection tube and centrifuged at 3000 rpm for 10 min at 4 °C. A plasma sample obtained at each time point was then stored at - 20 °C before shipping in a chilled condition with dry ice to Sekisui Medical Co., Ltd. (Ibaraki, Japan) for determination of plasma drug concentrations. […] Ultrafiltered plasma samples were used to determine unbound plasma concentrations of dotinurad by a validated LC-MS/MS method (LC:LC-20AD system, SHIMADZU. MS/MS: API4000, SCIEX). The LLOQ was 0.1 ng/mL.

[2] = Urinary excretion (fe) of dotinurad metabolites with and without oxaprozin in healthy adult males; type: in vivo, human
Experimental: (§1) This was a single-center, open-label, two-period, sequential-group, add-on, drug–drug interaction study in healthy adult males conducted at a Japanese clinical pharmacology study center. Following a screening period ranging from 29 days before, to the day before the study drug administration (Day -1), eligible subjects were admitted to the study site on Day-1, received a single 4 mg oral dose of dotinurad in a fed state, and were discharged 48 h postdose. […] They underwent a follow-up examination between six and ten days after co-administration for safety evaluation.
After the pH of the urine sample collected after each time interval was adjusted to ≤ 7.0, the sample was stored at – 20 °C before shipping in a chilled condition with dry ice to Fuji Yakuhin Co., Ltd. (Saitama, Japan) for determination of urinary concentrations of dotinurad’s metabolites.
Urinary concentrations of metabolites (glucuronate conjugates and sulfate conjugates) were determined by a validated LC-MS/MS method (LC: Nexera X2 and Prominence, SHIMADZU. MS/MS: Triple Quad 4500, SCIEX). The LLOQ was 10 ng/mL for both metabolites.

[3] = Unbound fraction of dotinurad in plasma at the time of Cmax (ultrafiltered plasma, LC-MS/MS); type: in vivo, human
Experimental: (§2) Ultrafiltered plasma samples were used to determine unbound plasma concentrations of dotinurad by a validated LC–MS/MS method (LC:LC-20AD system, SHIMADZU. MS/MS: API4000, SCIEX). The LLOQ was 0.1 ng/mL.

healthy adult males [4] = assay: Safety evaluation: adverse events in healthy adult males; type: in vivo, human; settings: for Adverse events reported, all: by treatment period, causal relationship with study drugs ruled out; for Peritonsillar abscess, incidence / Peritonsillar abscess, number of events / Pharyngitis, incidence / Pharyngitis, number of events / Urine beta 2 microglobulin increased, incidence / Urine beta 2 microglobulin increased, number of events: healthy adult males, n = 12 for each drug alone, n = 11 for co-administration
Experimental: as §1
Adverse events (AEs), a measure used for safety evaluation, were coded by preferred term using the Medical Dictionary for Regulatory Activities (MedDRA) version 20.1 (Japanese Maintenance Organization, Tokyo, Japan) and tabulated. The investigator observed/examined/assessed AEs, subjective symptoms and objective findings, vital signs, electrocardiography, and laboratory test values.
The safety analysis population included subjects who received at least one dose of dotinurad and who had data for safety evaluation.

healthy adult males [5] = assay: Estimated glomerular filtration rate 24 h after dosing; type: in vivo, human
human plasma protein = system: human plasma protein; parameters: method as in earlier work; settings: cited from earlier work
[6] = system: CYPs, UGTs, sulfotransferases, and drug transporters; parameters: method as in earlier work; settings: at clinical doses, several in vitro studies; cited from earlier work
[7] = system: urate transporter 1 (URAT1); parameters: method as in PMID 31371478, PMID 31754883; settings: cited from earlier work
[8] = system: ATP-binding cassette subfamily G member 2 (ABCG2); parameters: method as in PMID 31371478, PMID 31754883; settings: compared to probenecid, benzbromarone, and lesinurad; cited from earlier work
[9] = system: organic anion transporter (OAT) 1; parameters: method as in PMID 31371478, PMID 31754883; settings: compared to probenecid, benzbromarone, and lesinurad; cited from earlier work
OAT3 = system: OAT3; parameters: method as in PMID 31371478, PMID 31754883; settings: compared to probenecid, benzbromarone, and lesinurad; cited from earlier work
[10] = Plasma oxaprozin concentrations before and 24 h after co-administration (steady-state check); type: in vivo; settings: male, human, oral, 24 h after co-administration with dotinurad, n = 11
Experimental: A blood sample was drawn, in the amount of 5 mL at each time point except for 10 mL at 4 h after drug administration, into a heparin-containing blood collection tube and centrifuged at 3000 rpm for 10 min at 4 °C. A plasma sample obtained at each time point was then stored at – 20 °C before shipping in a chilled condition with dry ice to Sekisui Medical Co., Ltd. (Ibaraki, Japan) for determination of plasma drug concentrations.
as §2

[11] = [dotinurad and oxaprozin]/[dotinurad alone], n = 11
[12] = dotinurad 4 mg co-administered with oxaprozin 600 mg, fed, n = 11
[13] = dotinurad alone, single 4 mg oral dose, fed, n = 12
[14] = male, human, plasma, dotinurad alone, single 4 mg oral dose, fed, n = 12

SMILES: O=C(c1cc(Cl)c(O)c(Cl)c1)N1CS(=O)(=O)c2ccccc21 [Dotinurad, dotinurad]
- AUC0–inf, geometric mean ratio (90% CI) [1, 11]: 1.165 (1.114–1.219)
- CLtot/F, geometric mean ratio (90% CI) [1, 11]: 0.858 (0.820–0.898)
- Cmax, geometric mean ratio (90% CI) [1, 11]: 0.982 (0.945–1.021)
- T1/2, geometric mean ratio (90% CI) [1, 11]: 1.205 (1.176–1.236)
- Tmax, geometric mean ratio (90% CI) [1, 11]: 1.000 (0.844–1.185)
- Vd/F, geometric mean ratio (90% CI) [1, 11]: 1.035 (0.999–1.071)
- Increase in AUC0–inf of dotinurad ([1]; co-administration with oxaprozin compared with dotinurad alone): 16.5%
- AUC0–inf, mean [1, 12]: 4487 ng・h/mL
- CLtot/F, mean [1, 12]: 0.901 L/h
- AUC0–inf, mean [1, 13]: 3846 ng・h/mL
- CLtot/F, mean [1, 13]: 1.065 L/h
- Cmax [1, 14]: 0.271 µg/mL
- Tmax [1, 14]: 3.67 h
- Vd/F [1, 14]: 14.9 L
- half-life ([1]; male, human, plasma, dotinurad alone, single 4 mg oral dose, fed, n = 12, read-out: T1/2, mean (converted)): 9.85 h
- Estimated increase in dotinurad exposure when co-administered with oxaprozin ([2]; assuming absence of compensatory enhancement of other metabolic pathways): approximately 13%
- Proportion of glucuronidation inhibited by co-administered oxaprozin in terms of the entire metabolism of dotinurad ([2]; calculated from fe of glucuronate conjugates): 13.2%
- Unbound fraction in plasma at Cmax, geometric mean ratio (90% CI) [3, 11]: 1.615 (1.454–1.794)
- fraction unbound ([3]; male, human, plasma, oral, dotinurad alone, 4 mg, n = 12): 0.00534
- Adverse events reported, all (healthy adult males [4]): Two events occurred in two subjects
- Peritonsillar abscess, incidence (healthy adult males [4]): 0.0%
- Peritonsillar abscess, number of events (healthy adult males [4]): 0
- Pharyngitis, incidence (healthy adult males [4]): 8.3%
- Pharyngitis, number of events (healthy adult males [4]): 1
- Urine beta 2 microglobulin increased, incidence (healthy adult males [4]): 8.3%
- Urine beta 2 microglobulin increased, number of events (healthy adult males [4]): 1
- Estimated glomerular filtration rate (eGFR) (mean ± SD) (healthy adult males [5]; 24 h after administration of dotinurad alone, n = 12): 100.9 ± 13.0 mL/min/1.73 m^2
- Estimated glomerular filtration rate (eGFR) (mean ± SD) (healthy adult males [5]; 24 h after co-administration with oxaprozin, n = 11): 93.3 ± 13.0 mL/min/1.73 m^2
- Effect on plasma protein binding rates of potentially co-administered drugs (human plasma protein; at clinical doses, in vitro): no effects
- Effect on CYPs, UGTs, sulfotransferases, and drug transporters [6]: no effects
- URAT1 inhibition [7]: potent URAT1 inhibitor
- Effect on ABCG2 [8]: minimal effect
- Effect on OAT1 [9]: minimal effect
- Effect on OAT3 (OAT3): minimal effect

SMILES: O=C(O)CCc1nc(-c2ccccc2)c(-c2ccccc2)o1 [Oxaprozin, oxaprozin, reference compound]
- Adverse events reported, all (healthy adult males [4]): one event occurred in one subject
- Peritonsillar abscess, incidence (healthy adult males [4]): 8.3%
- Peritonsillar abscess, number of events (healthy adult males [4]): 1
- Pharyngitis, incidence (healthy adult males [4]): 0.0%
- Pharyngitis, number of events (healthy adult males [4]): 0
- Urine beta 2 microglobulin increased, incidence (healthy adult males [4]): 0.0%
- Urine beta 2 microglobulin increased, number of events (healthy adult males [4]): 0
- concentration at 24 h [10]: 102 ± 10.4 µg/mL
- Effect on plasma protein binding rate of dotinurad (human plasma protein; human plasma, ultrafiltration method): lower the plasma protein binding rate of dotinurad
